# Legend:
# [1] = system: p53 target genes in SJSA-1 tumours; assay: PK/PD experiment in SJSA-1 tumour-bearing mice (plasma exposure, p53 target gene mRNA); settings: 100 mg/kg
# Method: For PK/PD experiments, animals were randomised into groups of three, and tissue samples were collected at 0, 1, 3, 8, 16, 24 and 48 h. At the times indicated, animals were anaesthetised by exposure to 2–3% v/v isoflurane in medical oxygen.
# Subcutaneous SJSA-1, 778 and LP6 tumours were induced by injecting tumour cells expanded in vitro into the right flank of nude mice. […] The tumours were excised, weighed and rapidly frozen in liquid nitrogen. Later, they were cryogenically dry pulverised using the CryoPrep™ system (model CP-02, Covaris).
# The total RNA was purified from cell pellets using the QIAshredder (cat # 79654, Qiagen) and RNeasy Mini Kit (74106, Qiagen) according to the manufacturer’s instructions, with the exception that no DNA digestion was performed. Total RNA was quantitated using the spectrophotometer ND-1000 Nanodrop®. Quantitative reverse transcriptase PCR (qRT-PCR) was set up in triplicate per sample using either the One-Step RT qPCR Master Mix Plus (RT-QPRT-032X, Eurogentec) or the iTaq™ Universal Probes One-Step Kit (#1725141), with primers from TaqMan Gene Expression assays (20 × probe dye FAM™ [or VIC]-TAMRA [or MGB]; Applied Biosystems), including control primers (GUS-β 4310888E-1012026) and primers for the target genes (CDKN1A Hs00355782_m1; BBC3 Hs00248075_m1; MDM2 Hs01066930_m1). Alternatively, we performed a multiplex gene expression analysis on 104 p53 target genes with the NanoString assay.
# GDF-15 [2] = assay: serum GDF-15 in patients (ELISA); type: in vivo, human; settings: fold change from baseline
# Method: Serum growth differentiation factor-15 (GDF-15) was measured using the Quantikine ELISA kit (#DGD150, R&D Systems). Briefly, serum samples were diluted 1:4 and transferred to pre-coated plates. The assay was run with an 8-point standard curve, and absorbance was read at 450 nm. […] A coefficient of variation (CV%) < 20 between duplicates was considered acceptable.
# GDF-15 [3] = assay: indirect response PK/PD model of serum GDF-15; type: in vivo, human
# Excerpt: A total of 1919 observations (924 plasma PK, 717 platelet, and 278 GDF-15 measurements) and 20 platelet transfusion events derived from 46 patients were included in the dataset (data cutoff, January 2016). […] We used the stochastic approximation of the expectation-maximisation (SAEM) algorithm[13] implemented in the Monolix software (version 4.3.2, Lixoft) to estimate the fixed (population-level typical values) and random (inter-individual variability) effects for each model parameter and a residual error.
# A semi-mechanistic model mimicking hematopoietic cell maturation and regulation was developed to describe the time course of platelet kinetics and drug action on immature cells and modified from Friberg et al.[14] […]
# Models were evaluated based on the change in the Akaike’s information criterion (AIC) value, the convergence of the SAEM algorithm, the precision of the parameter estimates (NLME derived % relative standard error [RSE%]) and decreases in IIV and residual variability. […] The predictive performance of the final models was evaluated by simulating 500 datasets using parameter estimates (fixed and random effects) and plotting a visual predictive check (Supplementary Fig. S5). For serum GDF-15, serum concentration levels above the upper limit of quantification (>50,000 pg/mL) were handled as right-censored data. […]
# advanced solid tumours = assay: phase I antitumor activity (RECIST v1.1) and treatment duration; Reg 1: 3qw continuous; Reg 3: 3qw 2 weeks on/1 week off; type: in vivo, human; design: DCR / ORR: unit not given here
# Method: All patients provided written informed consent. […] Antitumor efficacy was assessed using computerised tomography (CT)/magnetic resonance imaging assessment at baseline and every 8 weeks until disease progression or the initiation of subsequent antineoplastic therapy or death, whichever occurred first. In addition, the criteria for determining confirmed partial response (PR) or complete response (CR) were required to be present for at least 4 weeks. Demographic and other baseline data and PK/PD parameters were summarised using descriptive statistics.[11] PK parameters were estimated using noncompartmental methods (Phoenix®, Pharsight, Mountain View, California, USA).
# SJSA-1 tumours = assay: efficacy in subcutaneous SJSA-1 tumour-bearing nude mice; type: in vivo, mouse
# Method: All animal experiments were performed according to procedures covered by permit number BS-1975 issued by the Cantonal Veterinary Office, Basel, Switzerland, and in strict adherence to the Federal Animal Protection Act and the Federal Animal Protection Code. Female athymic nude mice (Hsd:Athymic Nude-Foxn1nu, 7–8 weeks old, 20–22 g) were obtained from Envigo (Germany). All animals were housed in a pathogen-controlled environment with access to food and water ad libitum, and were identified with transponders.
compound,measurement,setting,value
COc1cc2c(cc1OC(C)C)[C@H](c1ccc(Cl)cc1)N(c1ccc(N(C)C[C@H]3CC[C@H](N4CCN(C)C(=O)C4)CC3)cc1)C(=O)C2 [CGM097],"PUMA induction, Emax",[1]; SJSA-1 tumours,19 fold
same,"p21 induction, maximum effect Emax",[1]; SJSA-1 tumours,41 fold
same,HDM2 increase in expression,"[1]; SJSA-1 tumours, compared with p21 and PUMA",lowest increase
same,time at which pharmacological activity reached basal levels,[1]; post treatment,48 h
same,serum GDF-15 (p53 pathway activation),GDF-15 [2],induction
same,GDF-15 level prior to the next treatment cycle,GDF-15 [3]; intermittent 2 weeks on/1 week off dosing,return of GDF-15 level to baseline
same,"Sg, Drug potency (GDF-15 production)",GDF-15 [3]; population estimate,0.00078 mL/ng
same,BOR: CR,"advanced solid tumours; 10 mg Reg 1, N = 3",0
same,BOR: PD,"advanced solid tumours; 10 mg Reg 1, N = 3",2 (66.7)
same,BOR: PR,"advanced solid tumours; 10 mg Reg 1, N = 3",0
same,BOR: SD,"advanced solid tumours; 10 mg Reg 1, N = 3",1 (33.3)
same,BOR: Unknown,"advanced solid tumours; 10 mg Reg 1, N = 3",0
same,DCR,"advanced solid tumours; 10 mg Reg 1, N = 3",1 (33.3)
same,ORR,"advanced solid tumours; 10 mg Reg 1, N = 3",0
same,BOR: CR,"advanced solid tumours; 20 mg Reg 1, N = 4",0
same,BOR: PD,"advanced solid tumours; 20 mg Reg 1, N = 4",2 (50.0)
same,BOR: PR,"advanced solid tumours; 20 mg Reg 1, N = 4",0
same,BOR: SD,"advanced solid tumours; 20 mg Reg 1, N = 4",1 (25.0)
same,BOR: Unknown,"advanced solid tumours; 20 mg Reg 1, N = 4",1 (25.0)
same,DCR,"advanced solid tumours; 20 mg Reg 1, N = 4",1 (25.0)
same,ORR,"advanced solid tumours; 20 mg Reg 1, N = 4",0
same,BOR: CR,"advanced solid tumours; 40 mg Reg 1, N = 4",0
same,BOR: PD,"advanced solid tumours; 40 mg Reg 1, N = 4",2 (50.0)
same,BOR: PR,"advanced solid tumours; 40 mg Reg 1, N = 4",0
same,BOR: SD,"advanced solid tumours; 40 mg Reg 1, N = 4",1 (25.0)
same,BOR: Unknown,"advanced solid tumours; 40 mg Reg 1, N = 4",1 (25.0)
same,DCR,"advanced solid tumours; 40 mg Reg 1, N = 4",1 (25.0)
same,ORR,"advanced solid tumours; 40 mg Reg 1, N = 4",0
same,BOR: CR,"advanced solid tumours; 80 mg Reg 1, N = 4",0
same,BOR: PD,"advanced solid tumours; 80 mg Reg 1, N = 4",3 (75.0)
same,BOR: PR,"advanced solid tumours; 80 mg Reg 1, N = 4",0
same,BOR: SD,"advanced solid tumours; 80 mg Reg 1, N = 4",1 (25.0)
same,BOR: Unknown,"advanced solid tumours; 80 mg Reg 1, N = 4",0
same,DCR,"advanced solid tumours; 80 mg Reg 1, N = 4",1 (25.0)
same,ORR,"advanced solid tumours; 80 mg Reg 1, N = 4",0
same,BOR: CR,"advanced solid tumours; 150 mg Reg 1, N = 4",0
same,BOR: PD,"advanced solid tumours; 150 mg Reg 1, N = 4",3 (75.0)
same,BOR: PR,"advanced solid tumours; 150 mg Reg 1, N = 4",0
same,BOR: SD,"advanced solid tumours; 150 mg Reg 1, N = 4",0
same,BOR: Unknown,"advanced solid tumours; 150 mg Reg 1, N = 4",1 (25.0)
same,DCR,"advanced solid tumours; 150 mg Reg 1, N = 4",0
same,ORR,"advanced solid tumours; 150 mg Reg 1, N = 4",0
same,BOR: CR,"advanced solid tumours; 300 mg Reg 1, N = 7",0
same,BOR: PD,"advanced solid tumours; 300 mg Reg 1, N = 7",3 (42.9)
same,BOR: PR,"advanced solid tumours; 300 mg Reg 1, N = 7",1 (14.3)
same,BOR: SD,"advanced solid tumours; 300 mg Reg 1, N = 7",2 (28.6)
same,BOR: Unknown,"advanced solid tumours; 300 mg Reg 1, N = 7",1 (14.3)
same,DCR,"advanced solid tumours; 300 mg Reg 1, N = 7",3 (42.9)
same,ORR,"advanced solid tumours; 300 mg Reg 1, N = 7",1 (14.3)
same,BOR: CR,"advanced solid tumours; 300 mg Reg 3, N = 8",0
same,BOR: PD,"advanced solid tumours; 300 mg Reg 3, N = 8",3 (37.5)
same,BOR: PR,"advanced solid tumours; 300 mg Reg 3, N = 8",0
same,BOR: SD,"advanced solid tumours; 300 mg Reg 3, N = 8",5 (62.5)
same,BOR: Unknown,"advanced solid tumours; 300 mg Reg 3, N = 8",0
same,DCR,"advanced solid tumours; 300 mg Reg 3, N = 8",5 (62.5)
same,ORR,"advanced solid tumours; 300 mg Reg 3, N = 8",0
same,BOR: CR,"advanced solid tumours; 400 mg Reg 1, N = 5",0
same,BOR: PD,"advanced solid tumours; 400 mg Reg 1, N = 5",1 (20.0)
same,BOR: PR,"advanced solid tumours; 400 mg Reg 1, N = 5",0
same,BOR: SD,"advanced solid tumours; 400 mg Reg 1, N = 5",4 (80.0)
same,BOR: Unknown,"advanced solid tumours; 400 mg Reg 1, N = 5",0
same,DCR,"advanced solid tumours; 400 mg Reg 1, N = 5",4 (80.0)
same,ORR,"advanced solid tumours; 400 mg Reg 1, N = 5",0
same,BOR: CR,"advanced solid tumours; 500 mg Reg 3, N = 6",0
same,BOR: PD,"advanced solid tumours; 500 mg Reg 3, N = 6",3 (50.0)
same,BOR: PR,"advanced solid tumours; 500 mg Reg 3, N = 6",0
same,BOR: SD,"advanced solid tumours; 500 mg Reg 3, N = 6",3 (50.0)
same,BOR: Unknown,"advanced solid tumours; 500 mg Reg 3, N = 6",0
same,DCR,"advanced solid tumours; 500 mg Reg 3, N = 6",3 (50.0)
same,ORR,"advanced solid tumours; 500 mg Reg 3, N = 6",0
same,BOR: CR,"advanced solid tumours; 700 mg Reg 3, N = 6",0
same,BOR: PD,"advanced solid tumours; 700 mg Reg 3, N = 6",3 (50.0)
same,BOR: PR,"advanced solid tumours; 700 mg Reg 3, N = 6",0
same,BOR: SD,"advanced solid tumours; 700 mg Reg 3, N = 6",1 (16.7)
same,BOR: Unknown,"advanced solid tumours; 700 mg Reg 3, N = 6",2 (33.3)
same,DCR,"advanced solid tumours; 700 mg Reg 3, N = 6",1 (16.7)
same,ORR,"advanced solid tumours; 700 mg Reg 3, N = 6",0
same,disease control rate,advanced solid tumours; 20/51 patients,39%
same,BOR: PD,"advanced solid tumours; All patients, N = 51",25 (49.0)
same,BOR: Unknown,"advanced solid tumours; All patients, N = 51",6 (11.8)
same,ORR,"advanced solid tumours; All patients, N = 51",1 (2.0)
same,patients with SD as best response,advanced solid tumours; alternative dosing regimen,nine
same,patients with SD as best response,advanced solid tumours; continuous dosing regimen,ten
same,patients with clinical benefit,advanced solid tumours; of 51 patients,20 patients
same,"duration of PR, response ongoing at cutoff","advanced solid tumours; one malignant melanoma patient, 300 mg 3qw continuous",≥ 118 weeks
same,tumour growth reduced compared to vehicle,SJSA-1 tumours; 25 mg/kg daily,50%
same,T/C,"SJSA-1 tumours; 50 mg/kg daily, stable disease",3%
same,tumour regression,"SJSA-1 tumours; 100 mg/kg daily, after 10 days of treatment",65%

# From paper PMC8405607 (British Journal of Cancer, 2021)
